Several values for one entry are separate records, joined by “and”; a condition that tells them apart may be missing. Identical values can stand only once.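 Interpolation was linear, between the two tested concentrations surrounding the appropriate level; five concentrations were tested over 48 hours in 96-well plates. Abbreviation: GI50, concentration required for 50% inhibition of growth. TGI is the concentration that stops growth completely.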
Experiments:
Assay in all cases: NCI anticancer screen, dose series, 48 h
NCI-H460 lung = tested on: NCI-H460 lung
OVCAR-8 ovarian = tested on: OVCAR-8 ovarian
MOLT-4 leukemia = tested on: MOLT-4 leukemia
MALME-3M melanoma = tested on: MALME-3M melanoma
TK-10 renal = tested on: TK-10 renal
NCI-H522 lung = tested on: NCI-H522 lung
SN12C renal = tested on: SN12C renal
NCI/ADR-RES ovarian = tested on: NCI/ADR-RES ovarian
MDA-MB-231 breast = tested on: MDA-MB-231 breast
HCT-116 colon = tested on: HCT-116 colon

SMILES	TGI (NCI-H460 lung)	TGI (OVCAR-8 ovarian)	TGI (MOLT-4 leukemia)	TGI (MALME-3M melanoma)	TGI (TK-10 renal)	TGI (NCI-H522 lung)	TGI (SN12C renal)	TGI (NCI/ADR-RES ovarian)	TGI (MDA-MB-231 breast)	TGI (HCT-116 colon)	GI50 (NCI-H522 lung)	GI50 (MALME-3M melanoma)	GI50 (SN12C renal)	GI50 (NCI-H460 lung)	GI50 (OVCAR-8 ovarian)	GI50 (MOLT-4 leukemia)	GI50 (TK-10 renal)	GI50 (NCI/ADR-RES ovarian)	GI50 (MDA-MB-231 breast)	GI50 (HCT-116 colon)
OC1(c2ccccc2)CC2CCC(C1)N2CCCC(O)(c1ccccc1)c1ccccc1 (stereo not drawn)	5.13 µM	36.1 µM	36.3 µM	39.1 µM	25.8 µM	27.9 µM	39.1 µM	39.1 µM	43.9 µM	36.1 µM	–	–	–	–	–	–	–	–	–	–
Oc1cc(O)c2c(c1)O[C@H](c1ccc(O)c(O)c1)[C@@H](O)C2	> 100 µM	> 100 µM	> 100 µM	> 100 µM	> 100 µM	> 100 µM	> 100 µM	> 100 µM	> 100 µM	> 100 µM	–	–	–	–	–	–	–	–	–	–
COc1ccc(/C=C2/N=C(N/N=C\C(O)C(O)C(O)CO)NC2=O)cc1 (stereo not drawn)	> 100 µM	> 100 µM	> 100 µM	> 100 µM	> 100 µM	> 100 µM	> 100 µM	> 100 µM	> 100 µM	> 100 µM	> 100 µM and 34.2 µM	–	–	–	–	–	–	–	–	–
Cn1c(N/N=C/c2ccccc2)nc(-c2ccc3c(c2)OCO3)c(C#N)c1=O	> 100 µM	90.6 µM	> 100 µM	> 100 µM	> 100 µM	> 100 µM	> 100 µM	> 100 µM	> 100 µM	> 100 µM	–	–	–	–	–	–	–	–	–	–
CCN(CC)CCNc1c2ccccc2nc2cccc([N+](=O)[O-])c12	0.0186 µM	0.0382 µM	0.124 µM	0.0231 µM and 0.0287 µM	0.0813 µM	0.0132 µM	0.0413 µM and 0.207 µM	0.034 µM	0.00487 µM	0.0182 µM and 0.0466 µM	–	0.013 µM	0.0221 µM	–	–	–	–	–	–	–
NC(Cc1ccc(O)cn1)C(=O)NC(C(=O)O)c1ccccc1 (stereo not drawn)	> 100 µM	> 100 µM	> 100 µM	> 100 µM	> 100 µM	> 100 µM	> 100 µM	> 100 µM	> 100 µM	> 100 µM	–	–	–	–	–	–	–	–	–	–
Nc1nc(Cl)cc(NCC2(CO)CCCCC2)n1	> 100 µM	> 100 µM	> 100 µM	> 100 µM	> 100 µM	> 100 µM	> 100 µM	> 100 µM	> 100 µM	> 100 µM	–	–	–	–	–	–	–	–	–	–
C1=N[C@]23C(=N[C@H](N=C2NCc2ccco2)[C@]24N=CNC2=N[C@H]3N=C4NCc2ccco2)N1	> 100 µM	> 100 µM	> 100 µM	> 100 µM	> 100 µM	> 100 µM	> 100 µM	> 100 µM	> 100 µM	> 100 µM	> 100 µM	> 100 µM	> 100 µM	> 100 µM	> 100 µM	> 100 µM	> 100 µM	> 100 µM	> 100 µM	> 100 µM
COc1ccccc1C1C2=C(COC2=O)Oc2cc3c(cc21)OCO3 (stereo not drawn)	> 100 µM	> 56.2 µM	> 100 µM	> 100 µM	> 90.5 µM	8.11 µM	> 100 µM	> 39.8 µM	> 87.6 µM	> 100 µM	–	–	–	–	–	–	–	–	–	–
CN(C(=O)[C@H](NC(=O)OCc1ccccc1)c1ccccc1)C1CCCCC1N1CCCC1 (stereo partly drawn)	> 100 µM	> 100 µM	> 100 µM	> 100 µM	> 100 µM	> 100 µM	> 100 µM	> 100 µM	> 100 µM	> 100 µM	–	–	–	–	–	–	–	–	–	–
c1ccc(-c2cnc(SC(c3ccccc3)c3ccccc3)[nH]2)cc1	46.8 µM	> 100 µM	> 100 µM	73.9 µM	> 100 µM	54.6 µM	65.4 µM	85.4 µM	> 100 µM	> 100 µM	–	–	–	–	–	–	–	–	–	–
Cc1ccc(C2(O)c3ccccc3C(=O)N(C)C2(O)c2ccc(C)cc2)cc1 (stereo not drawn)	75.8 µM	90.9 µM	35.1 µM	> 100 µM	> 100 µM	> 100 µM	> 100 µM	> 100 µM	> 100 µM	> 100 µM	–	–	–	–	–	–	–	–	–	–
Cc1cc(C)cc(Nc2nnc3n2S(=O)(=O)c2cc(C)c(Cl)cc2S3)c1	24.8 µM	> 100 µM	> 100 µM	13.7 µM	38.5 µM	22.6 µM	48.5 µM	9.26 µM	33.2 µM	> 100 µM	–	–	–	–	–	–	–	–	–	–
Clc1ccc(Nc2ncco2)cc1Cl	> 10 µM	> 10 µM	> 10 µM	> 10 µM	> 10 µM	> 10 µM	> 10 µM	> 10 µM	> 10 µM	> 10 µM	–	–	–	–	–	–	–	–	–	–
COc1cccc(N/C(C)=C2/CCOC2=O)c1	> 10 µM	> 10 µM	> 10 µM	> 10 µM	> 10 µM	> 10 µM	> 10 µM	> 10 µM	> 10 µM	> 10 µM	–	–	–	–	–	–	–	–	–	–
COc1ccc2c(c1)CC[C@@H]1[C@@H]2CC[C@]2(C)/C(=N/OCCN3CCCC3)CC[C@@H]12	3.08 µM	12.4 µM	4.85 µM	3.17 µM	16.9 µM	11.5 µM	15.9 µM	28.7 µM	8.92 µM	3.43 µM	–	–	–	–	–	–	–	–	–	–

Source: PubChem BioAssay (NCI)
